Results reported in US20060241166A1, “Sapphyrins and uses thereof” (Pharmacyclica, Inc., priority 2003, published 2006).
Where “and” joins values, the source holds several entries; their conditions need not be identical. Equal values may be shown once.

Tests used:
[1] = tested on: cells; assay: Annexin binding apoptosis assay, cells treated with sapphyrins for 24 hrs; format: cell-based; set-up: key: Back = background; Sat = saturated assay conditions: killing greater 95%
Protocol: (§1) All cell lines were grown in RPMI 1640 with 10% fetal bovine serum. Cells were treated at a density of 100,000 cells/ml with sapphyrins for 24 hrs and then assessed for apoptosis. Some cells were cultured for up to 96 hrs and then assessed for growth inhibition by counting cells using a coulter counter. For the xenograft model, 10 million Ramos cells were injected subcutaneously into the right hind flank of CD-1 nude mice that had been irradiated with 3 Gy 24 hrs prior to tumor implantation. Seven days later, the mice were treated with sapphyrin given intravenously in the tail vein q day×2 doses. Some animals were sacrificed the next day for analysis of drug uptake in tumor and spleen, tumor cell killing and tumor cell culture.
Annexin binding and propidium iodide exclusion were assayed using reagents from Biosource (Camarillo, Calif.) per manufacturer's protocol.

[2] = tested on: cells; assay: Growth inhibition by cell counting 96 hrs post treatment; format: cell-based; details: 0.5 uM sapphyrin
Protocol: as §1

[3] = Animal toxicology; details: for Animal toxicology: dose at which deaths were seen: in vivo; for Animal toxicology: highest doses that showed no deaths: numbers in parentheses
[4] = tested on: Lymphoma, Leukemia and Myeloma cell lines; assay: Cell death in Lymphoma, Leukemia and Myeloma cell lines (FIG. 11); format: cell-based; details: 1 μM
Protocol: (§2) Cytotoxicity was evaluated using Annexin-V staining and caspase activation as markers of apoptosis. Cell lines were grown in RPMI 1640 with 10% heat inactivated fetal bovine serum. Example 12 was added to cell cultures in concentrations ranging from 100 nM-5 μM.

[5] = tested on: Ramos cells; assay: Cell death in Ramos cell line (FIG. 13-15); format: cell-based
Protocol: as §1, §2

| SMILES | % Annexin positive cells after 24 hrs (sapphyrin dose) ([1]; 1 uM sapphyrin) [%] | % Annexin positive cells after 24 hrs (sapphyrin dose) ([1]; 2.5 uM sapphyrin) | % Annexin positive cells after 24 hrs (sapphyrin dose) ([1]; 5 uM sapphyrin) | % Annexin positive cells after 24 hrs (sapphyrin dose) ([1]; 0.5 Um sapphyrin) | After 96 hr (GI = growth inhibition 96 hrs post treatment compared to control untreated cells) [2] | Animal toxicology: animals dead ([3]; at 40 uM/kg) | Animal toxicology: dose at which deaths were seen [3] [uM/kg] | Animal toxicology: highest doses that showed no deaths [3] [uM/kg] | % Annexin positive cells after 24 hrs (sapphyrin dose) ([1]; 1 uM sapphyrin, listed as Ex. 1) | % Annexin positive cells after 24 hrs (sapphyrin dose) ([1]; 2.5 uM sapphyrin, listed as Ex. 1) | After 96 hr (GI = growth inhibition 96 hrs post treatment compared to control untreated cells) ([2]; listed as Ex. 1) | Animal toxicology: animals dead ([3]; at 26.8 uM/kg) | Increase in cell death [4] | Dose response of cell death ([5]; Ramos cell line, 8 hours, FIG. 14) | Dose response of cell death ([5]; Ramos cell lines, 48 hours incubation, FIG. 13) |
| --- | --- | --- | --- | --- | --- | --- | --- | --- | --- | --- | --- | --- | --- | --- | --- |
| CCc1c(CC)c2cc3nc(cc4[nH]c(c(CC)c4CC)c4[nH]c(cc5nc(cc1[nH]2)C(CCCOC(=O)NC(CO)(CO)CO)=C5C)c(CC)c4CC)C(C)=C3CCCOC(=O)NC(CO)(CO)CO [Example 2] | 10 | 41% | 97% | Back | 13% | 4/6 dead | 40 | 30 | – | – | – | – | – | – | – |
| O=C1NC(=O)c2ccccc21 [Phthalimide] | 16 | – | sat | back | GI-50% | – | – | – | – | – | – | – | – | – | – |
| CCc1c(CC)c2cc3nc(cc4[nH]c(c(CC)c4CC)c4[nH]c(cc5nc(cc1[nH]2)C(CCCOC(=O)NCCOCCOCCOC)=C5C)c(CC)c4CC)C(C)=C3CCCOC(=O)NCCOCCOCCOC [Example 3] | 93 | sat | sat | 10.6% | – | – | – | – | – | – | – | – | – | – | – |
| CCc1c(CC)c2cc3nc(cc4[nH]c(c(CC)c4CC)c4[nH]c(cc5nc(cc1[nH]2)C(CCCOC(=O)N(CCO)CCO)=C5C)c(CC)c4CC)C(C)=C3CCCOC(=O)N(CCO)CCO [Example 1] | – | – | sat | Back | – | – | 26.8 | 22.3 | 38% and 30% | 99% and 96% | 91% and 52% | 1/9 dead at | – | – | – |
| CCc1c(CC)c2cc3nc(cc4[nH]c(c(CC)c4CC)c4[nH]c(cc5nc(cc1[nH]2)C(CCCO)=C5C)c(CC)c4CC)C(C)=C3CCCO [Example 12] | – | – | – | – | – | – | – | – | – | – | – | – | at least a five-fold increase in cell death | An increase in the amount of Example 12 causes an increase in cell death | An increase in the amount of Example 12 causes an increase in cell death |
